Results as given in article PMC10060354, “Discovery of a small molecule ligand of FRS2 that inhibits invasion and tumor growth” (Cellular Oncology, 2022).

Key:
ERK (pT202/Y204) = test: Immunoblotting, ERK phosphorylation; format: cell-based, human; settings: DAOY, SW780, M059K, SKOV3, AGS, DMS114 and RT-112 cells; 10 µM compound or 1 µM BGJ398
Experimental: (§1) Cells were serum starved o.n. and 10 µM compound or 1 µM (BGJ398) were added 3 h before stimulation with 100 ng/ml bFGF for 15 min. Cells were lysed in RIPA buffer containing protease inhibitor cocktail and lysates resolved by SDS-PAGE. Membranes were probed with primary antibodies against phospho-FRS2, FRS2, phospho-ERK1/2, ERK1/2, pAKT, AKT and tubulin. Integrated density of immuno-reactive bands was quantified using Adobe Photoshop CS3. Integrated densities of phospho bands relative to non-phospho bands of same protein were calculated and plotted as fold-change relative to untreated control conditions. Compounds and BGJ398 were added in DMSO and corresponding DMSO concentrations were used in control samples.

[1] = system: bFGF-sensitive (M059K, RT-112, SW780) and bFGF-insensitive (SKOV3, AGS and HCT116) cell lines; test: SIA, collagen I invasion in panel of human cancer cell models; format: cell-based; settings: 10 µM
Experimental: 1000—2500 cells/well in 100 μl were seeded in 96 well Corning® Spheroid microplate (CLS4520, Sigma-Aldrich) or in cell-repellent 96 well microplate (650,790, Greiner Bio-one). SIA and analysis was performed as described before. In brief: After spheroid formation (24 – 72 h after seeding), 70 µl medium was removed and replaced with the collagen mixture (2.5 mg/ml Pure Col Collagen I (Advanced Biomatrix)), DMEM 1x (from 10 × stock, Sigma, D2429) and 0.4% Sodium bicarbonate (Sigma, S8761)), resulting in a final collagen concentration of 1.75 mg/ml. Embedded spheroids were stimulated with bFGF (100 ng/ml if not otherwise stated), HGF (30 ng /ml) or EGF (20 ng/ml) and distance of invaded cells quantified 24 – 48 h after embedding. Compounds and BGJ398 were added in Dimethylsulfoxid (DMSO) and corresponding DMSO concentrations were used in control samples.

[2] = Cell viability (cytotoxicity, MTT) using HepG2; format: cell-based, human; settings: human, HepG2 cells, 72 h, summary sheet, read-out: MTT (AC50) Conc at which 50% of maximum efficacy is reached
In short: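 Compounds were tested at 8 concentrations in triplicate on HepG2 cells plated 24 h beforehand, with 72 h exposure in 1% DMSO medium. MTT was loaded 1 h before the end, solubilized in DMSO and read at 570 nm. Minimum effective concentration is the lowest concentration exceeding the significance level, given dose-response or two consecutive points above it.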

[3] = system: FRS2 (Y436) phosphorylation; test: Immunoblotting, FRS2 phosphorylation; format: cell-based, human; settings: RT-112 cells
Experimental: as §1

[4] = Solubility at the concentration required for the biophysical assays; format: physicochemical; settings: 5% DMSO

Row | solubility for biophysical assays (result in words) [4] | Compound | basal and bFGF-induced phosphorylation of ERK (result in words) (ERK (pT202/Y204)) | collagen I invasion across cancer cell lines (result in words) [1] | AC50 at 72 h [2] [µM] | basal and bFGF-induced phosphorylation of FRS2Y436 (result in words) [3]
1 |  | N#Cc1c(Cl)cc(O)c2c1C1C=CCC1C(c1ccc(Cl)cc1)N2 (centres unmarked) [Compound 14] | inhibited basal and bFGF-induced phosphorylation | inhibited collagen I invasion in both bFGF-sensitive and bFGF-insensitive cell lines | 5.24 | reduced basal and bFGF-induced phosphorylation
2 | soluble in 5% DMSO | O=[N+]([O-])c1c(Cl)cc(O)c2c1C1C=CCC1C(c1ccc(Cl)cc1Cl)N2 (centres unmarked) [Compound 8] |  |  | 12.4 | 
3 |  | COc1ncc(C(C)NC2CC(C)(C)NC(C)(C)C2)cc1Cl (centres unmarked) [Compound 3.3] |  | significant repression of collagen I invasion only in SKOV3 and M059K cells | > 100 | 
